Source: US8569302B2, “Inhibitors of flaviviridae viruses” (Gilead Sciences, Inc., priority 2009, dated 2013)

System: human hepatoma Huh-7 cell line harboring a HCV replicon
Experiment: HCV replicon assay (inhibition of viral replication, luciferase readout)
Format: cell-based
Conditions: Huh-7 HCV replicon cells, 3 days incubation; for inhibition at 2 µM: Hepatitis C virus, 72 h
How it was run: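 Huh-7 replicon cells were exposed to 10-point 3-fold compound dilutions (0.44% DMSO) for 3 days at 37 °C. Replicon replication was read by Dual-Glo luciferase, with background from protease-inhibitor wells subtracted, and viability by calcein AM. EC50/CC50 came from a Hill-equation fit versus DMSO controls.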

Row | SMILES | inhibition at 2 µM | % inhibition at 2μM
1 | CC1=CCC(C(=O)N(c2cc(C#CC(C)(C)C)sc2C(=O)O)[C@H]2CC[C@H](O[C@H]3CCOC3)CC2)[C@@H](C)C1 (stereo partly drawn) [Compound 301, 5-(3,3-dimethyl-but-1-ynyl)-3-{(4,6S-dimethyl-cyclohex-3-enecarbonyl)-[4-(tetrahydro-furan-3S-yloxy)-trans-cyclohexyl]-amino}-thiophene-2-carboxylic acid] | 99.8% | –
2 | CC(C)(C)C#Cc1cc(N(C(=O)[C@H]2CC[C@H](C)CC2)[C@H]2CC[C@@H](Oc3ncccn3)CC2)c(C(=O)O)s1 [Compound 181, 5-(3,3-Dimethylbut-1-ynyl)-3-(4-methyl-N-(4-(pyrimidin-2-yloxy)cyclohexyl)cyclohexanecarboxamido)thiophene-2-carboxylic acid] | 98.3% | –
3 | CC1=CCC(C(=O)N(c2cc(C#CC(C)(C)C)sc2C(=O)O)[C@H]2CC[C@H](O[C@@H]3CCOC3)CC2)[C@@H](C)C1 (single isomer, unassigned) [Compound 308, 5-(3,3-Dimethyl-but-1-ynyl)-3-{(4,6S-dimethyl-cyclohex-3-enecarbonyl)-[4-(tetrahydro-furan-3R-yloxy)-trans-cyclohexyl]-amino}-thiophene-2-carboxylic acid] | – | 99.99%
4 | CC(C)(C)C#Cc1cc(N(C(=O)[C@H]2CC[C@H](C)CC2)C2CCC(O[C@@H]3CO[C@H]4OCC[C@H]43)CC2)c(C(=O)O)s1 (stereo partly drawn) [Compound 221, 5-(3,3-dimethylbut-1-ynyl)-3-((1r,4R)-4-methyl-N-(4-((3S,3aS,6aR)-tetrahydro-2H-furo[2,3-b]furan-3-yloxy)cyclohexyl)cyclohexanecarboxamido)thiophene-2-carboxylic acid] | 100% | –
5 | C[C@@H](CCOc1ncccn1)N(c1cc(C#CC(C)(C)C)sc1C(=O)O)C(=O)[C@H]1CC[C@H](C)CC1 [Compound 59] | 99.9% | –
6 | CC(C)(C)C#Cc1cc(N(C(=O)[C@H]2CC[C@H](C)CC2)[C@H]2CC[C@H](Sc3nncs3)CC2)c(C(=O)O)s1 [Compound 86, 3-(N-(4-(1,3,4-Thiadiazol-2-ylthio)cyclohexyl)-4-methylcyclohexanecarboxamido)-5-(3,3-dimethylbut-1-ynyl)thiophene-2-carboxylic acid] | 100% | –
7 | CN(C)Cc1csc(OC2CCC(N(c3cc(C#CC(C)(C)C)sc3C(=O)O)C(=O)[C@H]3CC[C@H](C)CC3)CC2)n1 (some centres unmarked) [Compound 156, 3-(N-(4-(4-((Dimethylamino)methyl)thiazol-2-yloxy)cyclohexyl)-4-methylcyclohexanecarboxamido)-5-(3,3-dimethylbut-1-ynyl)thiophene-2-carboxylic acid] | 100% | –
8 | CC(C)(C)C#Cc1cc(N(C(=O)[C@H]2CC[C@H](C)CC2)[C@H]2CC[C@@H](Oc3cncnc3)CC2)c(C(=O)O)s1 [Compound 179, 5-(3,3-Dimethylbut-1-ynyl)-3-(4-methyl-N-(4-(pyrimidin-5-yloxy)cyclohexyl)cyclohexanecarboxamido)thiophene-2-carboxylic acid] | 99.5% | –
9 | CC(C)(C)C#Cc1cc(N(C(=O)[C@H]2CC[C@H](C)CC2)C2CCN(S(=O)(=O)c3cccs3)CC2)c(C(=O)O)s1 [Compound 207, 5-(3,3-Dimethyl-but-1-ynyl)-3-{(4-methyl-cyclohexanecarbonyl)-[1-(thiophene-2-sulfonyl)-piperidin-4-yl]-amino}-thiophene-2-carboxylic acid] | 99.8% | –
10 | CC1CCC(C(=O)N(c2cc(C#CC(C)(C)C)sc2C(=O)O)[C@H]2CC[C@H](Oc3ccnc(CN4CCCC4)c3)CC2)CC1 (some centres unmarked) [Compound 199, 3-[[-4-(2-pyrrolidin-1-ylmethyl-pyridin-4-yloxy)-cyclohexyl]-(4-methyl-cyclohexanecarbonyl)-amino]-5-(3,3-dimethyl-but-1-ynyl)-thiophene-2-carboxylic acid] | 99.9% | –
11 | CC(C)(C)C#Cc1cc(N(C(=O)[C@H]2CC[C@H](C)CC2)C2CCN(S(=O)(=O)c3nnc[nH]3)CC2)c(C(=O)O)s1 [Compound 202, 5-(3,3-Dimethyl-but-1-ynyl)-3-{(4-methyl-cyclohexanecarbonyl)-[1-(4H-[1,2,4]triazole-3-sulfonyl)-piperidin-4-yl]-amino}-thiophene-2-carboxylic acid] | 96.4% | –
12 | Cn1cnnc1S[C@H]1CC[C@H](N(c2cc(C#CC(C)(C)C)sc2C(=O)O)C(=O)[C@H]2CC[C@H](C)CC2)CC1 [Compound 84, 5-(3,3-dimethylbut-1-ynyl)-3-(4-methyl-N-(4-(4-methyl-4H-1,2,4-triazol-3-ylthio)cyclohexyl)cyclohexanecarboxamido)thiophene-2-carboxylic acid] | 99.9% | –
13 | CC(C)(C)C#Cc1cc(N(C(=O)[C@H]2CC[C@H](C)CC2)[C@H]2CC[C@@H](Oc3cccnc3)CC2)c(C(=O)O)s1 [Compound 180, 5-(3,3-Dimethylbut-1-ynyl)-3-(4-methyl-N-(4-(pyridin-3-yloxy)cyclohexyl)cyclohexanecarboxamido)thiophene-2-carboxylic acid] | 99.6% | –
14 | CN(C)Cc1ccnc(O[C@H]2CC[C@@H](N(c3cc(C#CC(C)(C)C)sc3C(=O)O)C(=O)[C@H]3CC[C@H](C)CC3)CC2)c1 [Compound 175, Sodium 3-(N-(4-(4-((dimethylamino)methyl)pyridin-2-yloxy)cyclohexyl)-4-methylcyclohexanecarboxamido)-5-(3,3-dimethylbut-1-ynyl)thiophene-2-carboxylate] | 100% | –
15 | CC(C)(C)C#Cc1cc(N(C(=O)[C@H]2CC[C@H](C)CC2)[C@H]2CC[C@H](O[C@H]3CCOC3)CC2)c(C(=O)O)s1 [Compound 331, 5-(3,3-Dimethyl-but-1-ynyl)-3-{(trans-4-methyl-cyclohexanecarbonyl)-[4-(tetrahydro-furan-3(S)-yloxy)-trans-cyclohexyl]-amino}-thiophene-2-carboxylic acid] | 100% | –
16 | CC1CCC(C(=O)N(c2cc(C#CC(C)(C)C)sc2C(=O)O)[C@H]2CC[C@H](Oc3ccnc4ccccc34)CC2)CC1 (some centres unmarked) [Compound 25, 5-(3,3-Dimethyl-but-1-ynyl)-3-{(4-methyl-cyclohexanecarbonyl)-[4-(quinolin-4-yloxy)-cyclohexyl]-amino}-thiophene-2-carboxylic acid] | 99.3% | –
17 | C[C@H]1CC[C@H](C(=O)N(c2cc(C#CC3(C(F)(F)F)CC3)sc2C(=O)O)[C@H]2CC[C@@H](OC3CCOC3)CC2)CC1 (stereo partly drawn) [Compound 346, 3-((1r,4R)-4-methyl-N-((1s,4S)-4-(tetrahydrofuran-3-yloxy)cyclohexyl)cyclohexanecarboxamido)-5-(2-(1-(trifluoromethyl)cyclopropyl)ethynyl)thiophene-2-carboxylic acid] | 99.5% | –
